Here are results for seven compounds from patent publication US20140187596A1, “FATTY ACID AMIDE HYDROLASE INHIHIBITORS FOR TREATING PAIN” (ALLERGAN, INC., priority 2011, published 2014).

Each structure is given as a SMILES string.

Holding throughout (format): biochemical
The target in one experiment is FP receptor (Homo sapiens, UniProt P43088). Nature of the experiment: PG receptor antagonism, FP. Further details: unit not given here. To be noted: antagonist activity at FP receptor.
The target in the next experiment is T1, DP receptor (Homo sapiens, UniProt Q13258).
T1 sequence (Q13258 1-359): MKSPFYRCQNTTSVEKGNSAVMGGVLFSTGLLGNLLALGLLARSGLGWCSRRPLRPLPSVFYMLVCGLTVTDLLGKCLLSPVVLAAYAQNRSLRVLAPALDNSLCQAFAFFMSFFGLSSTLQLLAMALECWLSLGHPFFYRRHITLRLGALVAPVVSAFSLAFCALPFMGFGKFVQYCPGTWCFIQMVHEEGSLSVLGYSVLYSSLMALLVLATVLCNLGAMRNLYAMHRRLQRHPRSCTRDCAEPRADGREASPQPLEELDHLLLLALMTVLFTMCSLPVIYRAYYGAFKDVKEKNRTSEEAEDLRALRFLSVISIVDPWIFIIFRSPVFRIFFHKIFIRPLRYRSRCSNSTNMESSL
Nature of the experiment: PG receptor antagonism, DP. Further details: unit not given here. Particulars: antagonist activity at DP receptor.

In a further experiment the target is T2, EP1 receptor (Homo sapiens, UniProt P34995).
T2 sequence (P34995 1-402): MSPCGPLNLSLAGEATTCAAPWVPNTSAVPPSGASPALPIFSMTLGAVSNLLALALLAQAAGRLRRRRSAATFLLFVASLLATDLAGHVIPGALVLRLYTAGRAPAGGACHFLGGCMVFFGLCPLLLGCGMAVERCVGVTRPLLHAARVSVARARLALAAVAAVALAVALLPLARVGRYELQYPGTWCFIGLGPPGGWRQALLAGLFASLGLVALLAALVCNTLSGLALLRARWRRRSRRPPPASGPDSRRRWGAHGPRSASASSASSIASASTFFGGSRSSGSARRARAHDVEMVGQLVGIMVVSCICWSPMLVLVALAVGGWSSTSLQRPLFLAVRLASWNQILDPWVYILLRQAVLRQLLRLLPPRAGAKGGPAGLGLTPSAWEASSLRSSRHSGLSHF
Nature of the experiment: PG receptor antagonism, EP1. Particulars: antagonist activity at EP1 receptor. Also noted: unit not given here.

A further experiment concerns the target T3, EP3 receptor (Homo sapiens, UniProt P43115).
T3 sequence (P43115 1-390): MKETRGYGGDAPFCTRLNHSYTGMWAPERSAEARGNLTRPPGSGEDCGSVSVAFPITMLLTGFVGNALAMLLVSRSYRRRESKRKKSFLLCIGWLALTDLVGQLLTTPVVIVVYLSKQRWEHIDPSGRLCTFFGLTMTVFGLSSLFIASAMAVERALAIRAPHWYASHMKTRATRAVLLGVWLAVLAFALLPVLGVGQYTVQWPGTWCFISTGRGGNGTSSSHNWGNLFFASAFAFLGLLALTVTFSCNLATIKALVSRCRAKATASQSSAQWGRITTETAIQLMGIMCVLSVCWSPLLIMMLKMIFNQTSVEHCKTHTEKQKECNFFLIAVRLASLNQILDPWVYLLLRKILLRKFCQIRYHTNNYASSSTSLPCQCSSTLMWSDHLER
Kind of experiment: PG receptor antagonism, EP3. Further details: unit not given here. Particulars: antagonist activity at EP3 receptor.

The target of the next experiment is EP4 receptor (Homo sapiens, UniProt P35408). Nature of the experiment: PG receptor antagonism, EP4. Further details: unit not given here. Particulars: antagonist activity at EP4 receptor.
EP4 receptor, sequence (P35408 whole entry): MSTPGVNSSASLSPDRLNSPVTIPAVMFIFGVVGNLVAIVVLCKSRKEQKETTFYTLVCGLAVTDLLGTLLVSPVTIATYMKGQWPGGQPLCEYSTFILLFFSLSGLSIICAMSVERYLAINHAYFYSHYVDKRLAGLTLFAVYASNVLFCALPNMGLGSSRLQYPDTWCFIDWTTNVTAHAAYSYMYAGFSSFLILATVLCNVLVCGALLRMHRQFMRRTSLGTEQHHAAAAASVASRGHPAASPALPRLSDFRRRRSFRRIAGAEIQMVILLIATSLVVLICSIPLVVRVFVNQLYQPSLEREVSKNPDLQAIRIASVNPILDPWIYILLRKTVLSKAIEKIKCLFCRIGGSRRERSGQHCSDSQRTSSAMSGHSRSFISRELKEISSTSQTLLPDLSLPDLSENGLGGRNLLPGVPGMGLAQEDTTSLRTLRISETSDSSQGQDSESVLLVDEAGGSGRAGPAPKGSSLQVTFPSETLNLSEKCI
For the next experiment, the target named is T4, TP receptor (Homo sapiens, UniProt P21731).
T4 sequence (P21731 1-343): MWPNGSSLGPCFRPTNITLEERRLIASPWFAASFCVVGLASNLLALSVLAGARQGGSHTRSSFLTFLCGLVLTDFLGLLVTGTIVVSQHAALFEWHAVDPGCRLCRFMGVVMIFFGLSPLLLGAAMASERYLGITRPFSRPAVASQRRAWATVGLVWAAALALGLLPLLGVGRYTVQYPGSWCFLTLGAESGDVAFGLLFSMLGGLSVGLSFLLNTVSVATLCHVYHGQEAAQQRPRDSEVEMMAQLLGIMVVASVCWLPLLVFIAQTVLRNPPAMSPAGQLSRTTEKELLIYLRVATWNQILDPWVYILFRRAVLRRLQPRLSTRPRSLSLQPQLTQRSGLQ
Kind of experiment: PG receptor antagonism, TP. Particulars: antagonist activity at TP receptor. Further details: unit not given here.

The target in another experiment is IP receptor (Homo sapiens, UniProt P43119). Kind of experiment: PG receptor antagonism, IP. Particulars: antagonist activity at IP receptor. Also noted: unit not given here.
IP receptor, sequence (P43119 whole entry): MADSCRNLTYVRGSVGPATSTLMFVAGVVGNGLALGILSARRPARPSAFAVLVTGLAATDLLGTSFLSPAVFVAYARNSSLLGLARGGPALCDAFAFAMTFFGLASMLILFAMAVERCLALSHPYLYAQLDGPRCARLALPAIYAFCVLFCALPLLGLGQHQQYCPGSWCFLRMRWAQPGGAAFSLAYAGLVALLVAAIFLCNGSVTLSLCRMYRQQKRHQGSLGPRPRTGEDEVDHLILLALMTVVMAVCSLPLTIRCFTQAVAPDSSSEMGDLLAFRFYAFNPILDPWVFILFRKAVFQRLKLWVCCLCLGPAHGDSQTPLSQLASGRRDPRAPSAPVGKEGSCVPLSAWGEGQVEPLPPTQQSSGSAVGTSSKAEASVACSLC
A further experiment has as its target EP2 receptor (Homo sapiens, UniProt P43116). Kind of experiment: PG receptor antagonism, EP2. To be noted: antagonist activity at EP2 receptor.

FP receptor, sequence (P43088 whole entry): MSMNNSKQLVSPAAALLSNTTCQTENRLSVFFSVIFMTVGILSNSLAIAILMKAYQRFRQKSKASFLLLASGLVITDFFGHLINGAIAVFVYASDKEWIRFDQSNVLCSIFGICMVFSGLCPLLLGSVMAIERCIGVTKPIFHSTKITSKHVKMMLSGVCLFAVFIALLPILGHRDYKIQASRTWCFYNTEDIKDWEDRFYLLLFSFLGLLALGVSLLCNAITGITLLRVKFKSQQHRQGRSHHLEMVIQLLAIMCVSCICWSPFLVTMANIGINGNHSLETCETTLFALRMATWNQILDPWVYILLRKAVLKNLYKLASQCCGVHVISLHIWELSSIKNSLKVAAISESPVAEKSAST
EP2 receptor, sequence (P43116 whole entry): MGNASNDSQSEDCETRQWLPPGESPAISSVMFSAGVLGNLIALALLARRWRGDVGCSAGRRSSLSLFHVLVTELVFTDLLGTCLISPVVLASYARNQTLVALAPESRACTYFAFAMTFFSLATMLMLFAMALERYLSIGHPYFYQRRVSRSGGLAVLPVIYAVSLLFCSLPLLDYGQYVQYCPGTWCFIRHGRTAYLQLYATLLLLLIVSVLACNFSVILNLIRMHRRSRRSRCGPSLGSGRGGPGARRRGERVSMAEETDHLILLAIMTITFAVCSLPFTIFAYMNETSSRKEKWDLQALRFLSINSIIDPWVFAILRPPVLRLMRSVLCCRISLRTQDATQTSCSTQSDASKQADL

Compound `O=C(O)/C=C/c1ccc(F)cc1C[C@@H]1C(c2nc(C(=O)NCCCCC3CCCCC3)co2)C2CC[C@H]1O2` (stereo partly drawn) [Example 1, (E)-3-(2R-{3R-[4-(4-Cyclohexyl-butylcarbamoyl)-oxazol-2-yl]-7-oxa-bicyclo[2.2.1]hept-2-ylmethyl}-4-fluoro-phenyl)-acrylic acid] gave an FP at FP receptor of 60. Also, the DP on DP receptor came to 70. This compound showed an EP1 at EP1 receptor of 380. The compound further came in with an EP3 at EP3 receptor of 5500. Moreover, the EP4 at EP4 receptor came to 60. Further, the TP on TP receptor is below 1.

Turning to `CCS(=O)(=O)NC(=O)/C=C/c1ccc(F)cc1C[C@@H]1C(c2nc(C(=O)NCCCCC3CCCCC3)co2)C2CC[C@H]1O2` (stereo partly drawn) [Example 2, (E)-3R-[2R-[[3-[4-[[(4-cyclohexylbutyl)amino]carbonyl]-2-oxazolyl]-7-oxabicyclo[2.2.1]hept-2-yl]methyl]-4-fluoro-phenyl]-N-(ethylsulfonyl)acrylic amide], the FP at FP receptor came to 100. The DP at DP receptor amounted to 50. Also, the EP1 on EP1 receptor stood at 190. Moreover, the EP3 on EP3 receptor amounted to 1600. This compound registered an EP4 at EP4 receptor of 140. For the same compound, the IP on IP receptor was 1100. This compound also yielded a TP at TP receptor below 1.

As to `CS(=O)(=O)NC(=O)/C=C/c1ccc(F)cc1C[C@@H]1C(c2nc(C(=O)NCCCCC3CCCCC3)co2)C2CC[C@H]1O2` (stereo partly drawn) [Example 3, (E)-3R-[2R-[[3-[4-[[(4-cyclohexylbutyl)amino]carbonyl]-2-oxazolyl]-7-oxabicyclo[2.2.1]hept-2-yl]methyl]-4-fluoro-phenyl]-N-(methylsulfonyl)acrylic amide], at FP receptor, the FP amounted to 90. In addition, the DP on DP receptor came to 30. The same compound registered an EP1 on EP1 receptor of 65. Further, at EP3 receptor, the EP3 came to 790. In addition, the EP4 at EP4 receptor was 100. In addition, on TP receptor, the TP was below 1.

At FP receptor, `O=C(/C=C/c1ccc(F)cc1C[C@@H]1C(c2nc(C(=O)NCCCCC3CCCCC3)co2)C2CC[C@H]1O2)NS(=O)(=O)CC(F)(F)F` (stereo partly drawn) [Example 4, (E)-3R-[2R-[[3-[4-[[(4-cyclohexylbutyl)amino]carbonyl]-2-oxazolyl]-7-oxabicyclo[2.2.1]hept-2-yl]methyl]-4-fluoro-phenyl]-N-(2,2,2-trifluoroethanesulfonyl)acrylic amide] yielded an FP of 130. Also, the DP on DP receptor came to 80. Also, on EP1 receptor, the EP1 is 50. This compound came in with an EP2 at EP2 receptor of 5300. The same compound showed an EP3 at EP3 receptor of 2500. The EP4 on EP4 receptor is recorded as 80. For the same compound, the TP at TP receptor is reported as below 1.

On FP receptor, `O=C(/C=C/c1ccc(F)cc1C[C@@H]1C(c2nc(C(=O)NCCCCC3CCCCC3)co2)C2CC[C@H]1O2)NS(=O)(=O)c1ccccc1` (stereo partly drawn) [Example 6, (E)-3R-[2R-[[3-[4-[[(4-cyclohexylbutyl)amino]carbonyl]-2-oxazolyl]-7-oxabicyclo[2.2.1]hept-2-yl]methyl]-4-fluoro-phenyl]-N-(benzenesulfonyl)acrylic amide] had an FP of 100. At DP receptor, this compound showed a DP of 60. This compound yielded an EP1 on EP1 receptor of 60. Besides, the EP3 on EP3 receptor is 290. This compound had an EP4 on EP4 receptor of 380. At IP receptor, this compound displayed an IP of 1500. The compound further registered a TP at TP receptor below 1.

`CCCCCCCCNC(=O)c1coc(C2C3CCC(O3)C2Cc2cc(F)ccc2/C=C/C(=O)NS(=O)(=O)CC)n1` (stereo not drawn) [Example 7] came in with an FP on FP receptor of 370. In addition, the DP on DP receptor is 45. On EP1 receptor, the EP1 was 80. Besides, the EP3 at EP3 receptor was found to be 1900. The compound further returned an EP4 on EP4 receptor of 200. In addition, on IP receptor, the IP came out at 3500. Also, the TP at TP receptor is below 1.

Turning to `CCCCCCCCCNC(=O)c1coc(C2C3CCC(O3)C2Cc2cc(F)ccc2CCC(=O)NS(=O)(=O)C(F)(F)F)n1` (stereo not drawn) [Example 8, 2-{3-[5-Fluoro-2-(3-oxo-3-trifluoromethanesulfonylamino-propyl)-benzyl]-7-oxa-bicyclo[2.2.1]hept-2-yl}-oxazole-4-carboxylic acid nonylamide], the FP on FP receptor came to 50. Besides, the DP at DP receptor is 10. Further, at EP1 receptor, the EP1 was found to be 40. In addition, on EP2 receptor, the EP2 is recorded as 4000. This compound yielded an EP3 at EP3 receptor of 700. The EP4 at EP4 receptor was found to be 30. The same compound displayed an IP at IP receptor of 3300. Also, at TP receptor, the TP is listed as below 1.
